From ChEMBL document CHEMBL1201862, “PubChem BioAssay data set” (2004)
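Following 48 hours of exposure in 96-well plates, responses at five concentrations were used to interpolate endpoints linearly. GI50 = concentration required for 50% inhibition of growth.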 Calls of active or inactive are those of the source. Cut-off read from the data, not from the text of the source: active = GI50 up to about 1.1 µM and inactive = higher.

Tests used:
Assay in all cases: NCI-60 cell line screen, 48 h
[1] = system: 786-0
[2] = system: A498
[3] = system: A549
[4] = system: CAKI-1
[5] = system: HCC 2998
[6] = system: M14
[7] = system: MOLT-4
[8] = system: OVCAR-3
[9] = system: OVCAR-5
[10] = system: OVCAR-8
[11] = system: RXF 393
[12] = system: SF-539
[13] = system: SK-MEL-28
[14] = system: SN12C
[15] = system: SR
[16] = system: SW-620
[17] = system: TK-10
[18] = system: U-251
[19] = system: DU-145

Measured: GI50

COC[C@@H]1[C@H]2OC(C)(C)O[C@H]2C(=O)N1C(=O)c1ccc(OC)cc1
inactive: [1] > 100 µM | [2] > 100 µM | [3] > 100 µM | [4] > 100 µM | [5] > 100 µM | [6] > 100 µM | [7] > 100 µM | [8] > 100 µM | [9] > 100 µM | [10] > 100 µM | [11] > 100 µM | [12] > 100 µM | [13] > 100 µM | [14] > 100 µM | [15] > 100 µM | [16] > 100 µM | [17] > 100 µM | [18] > 100 µM

O=c1c2ccccc2nc(-c2cccc(Cl)c2)n1NC1OC(CO)C(O)C(O)C1O (stereo unspecified)
inactive: [1] > 100 µM | [2] > 100 µM | [3] > 100 µM | [4] > 100 µM | [5] > 100 µM | [6] > 100 µM | [7] > 100 µM | [8] > 100 µM | [9] > 100 µM | [10] > 100 µM | [12] > 100 µM | [13] > 100 µM | [14] > 100 µM | [16] > 100 µM | [17] > 100 µM | [18] > 100 µM

CCOC(=O)[C@@]12C(C)=CC(=O)O[C@]1(C)C[C@H]2C#N
inactive: [1] > 100 µM | [2] > 100 µM | [3] > 100 µM | [5] > 100 µM | [6] > 100 µM | [7] > 100 µM | [8] > 100 µM | [10] > 100 µM | [11] > 100 µM | [12] > 100 µM | [13] > 100 µM | [14] > 100 µM | [16] > 100 µM | [17] > 100 µM | [18] > 100 µM

Cc1ccc2c(c1)CN1c3ccc(C)cc3CN2C1c1ccccc1O
inactive: [1] 42.5 µM | [3] > 100 µM | [4] > 100 µM | [6] > 100 µM | [7] 35.2 µM | [8] 21.5 µM | [9] 18.6 µM | [10] > 100 µM | [11] 7.18 µM | [12] 49 µM | [13] 37.5 µM | [14] 29.9 µM | [15] 11.7 µM | [16] 61.9 µM | [17] 26.2 µM | [18] 38.5 µM

O=C1C=C(Nc2ccc(Cl)cc2C(=O)c2ccccc2)c2ccccc2C1=O
inactive: [1] > 100 µM | [2] > 100 µM | [3] > 100 µM | [4] > 100 µM | [5] > 100 µM | [6] > 100 µM | [7] > 100 µM | [8] > 100 µM | [9] > 100 µM | [10] > 100 µM | [11] > 100 µM | [12] > 100 µM | [13] > 100 µM | [14] > 100 µM | [16] > 100 µM | [17] > 100 µM | [18] > 100 µM

Nc1nc(N)c(-c2ccccc2)c(C(=O)Nc2ccc(Cl)c(Cl)c2)n1
inactive: [1] > 100 µM | [2] > 100 µM | [3] > 100 µM | [4] > 100 µM | [5] > 100 µM | [6] > 100 µM | [7] > 100 µM | [8] > 100 µM | [9] > 100 µM | [10] > 100 µM | [11] > 100 µM | [12] > 100 µM | [13] > 100 µM | [14] > 100 µM | [16] > 100 µM | [17] > 100 µM | [18] > 100 µM

O=C1C(c2ccccc2)=C(c2ccccc2)C(c2ccc(-c3ccc(C4=C(c5ccccc5)C(=O)C(c5ccccc5)=C4c4ccccc4)cc3)cc2)=C1c1ccccc1
inactive: [1] > 100 µM | [2] > 100 µM | [3] > 100 µM | [4] > 100 µM | [6] > 100 µM | [7] 77.8 µM | [8] > 100 µM | [9] > 100 µM | [10] > 100 µM | [11] > 100 µM | [12] > 100 µM | [14] > 100 µM | [15] > 100 µM | [16] > 100 µM | [17] > 100 µM | [18] > 100 µM

O=C(N/N=C/c1cc(Cl)cc(Cl)c1O)c1ccncc1
inactive: [1] 57.9 µM | [2] > 100 µM | [3] > 100 µM | [5] > 100 µM | [6] > 100 µM | [7] 36.9 µM | [8] 32.2 µM | [9] 39.1 µM | [10] 70.6 µM | [11] > 100 µM | [12] 68.5 µM | [13] > 100 µM | [14] > 100 µM | [15] 39.1 µM | [16] > 100 µM | [17] > 100 µM | [18] 92.3 µM

Cc1cccc(NC(=O)C(=O)Cc2nc3ccccc3nc2O)c1C
inactive: [1] > 100 µM | [2] > 100 µM | [3] > 100 µM | [4] > 100 µM | [5] > 100 µM | [6] > 100 µM | [8] > 100 µM | [9] > 100 µM | [10] > 100 µM | [11] > 100 µM | [12] > 100 µM | [13] > 100 µM | [14] > 100 µM | [15] > 100 µM | [16] > 100 µM | [17] > 100 µM | [18] > 100 µM

O=C1CC2CC=C[C@H]3c4cc5c(cc4C(=O)N1C23)OCO5 (stereo partly specified)
inactive: [1] > 50 µM | [3] > 50 µM | [5] > 50 µM | [6] > 50 µM | [7] > 50 µM | [8] > 50 µM | [10] > 50 µM | [11] > 50 µM | [12] > 50 µM | [13] > 50 µM | [14] > 50 µM | [16] > 50 µM | [17] > 50 µM | [18] > 50 µM

COc1ccc(N/N=C/C2=CC(C)(C)C(C#N)(C#N)C(O)=C2C#N)cc1
inactive: [1] 38.5 µM | [2] 37.9 µM | [3] 25.6 µM | [4] 36.6 µM | [19] 77.8 µM | [6] 54.2 µM | [7] 28.4 µM | [8] 21.6 µM | [9] 69.8 µM | [10] 28.7 µM | [11] 36.6 µM | [12] 26.1 µM | [13] 91.2 µM | [14] 47.4 µM | [15] 11.5 µM | [16] 40.9 µM | [17] > 100 µM | [18] 45.1 µM

COc1ccc(C2CC(C)=Nc3c(O)nc(S)nc3N2)cc1 (stereo unspecified)
inactive: [1] 17.1 µM | [2] 19.2 µM | [3] 16.9 µM | [4] 27.6 µM | [5] 16.7 µM | [6] 19.6 µM | [7] 23.1 µM | [8] 22.4 µM | [9] 23.4 µM | [10] 20 µM | [11] 18.8 µM | [12] 24.5 µM | [13] 27 µM | [14] 19.4 µM | [15] 25.6 µM | [16] 5.27 µM | [17] 20.8 µM | [18] 17.3 µM

CN(C)CCN(C)CC1COC(C)(C)O1 (stereo unspecified)
inactive: [1] > 100 µM | [2] > 100 µM | [3] > 100 µM | [4] > 100 µM | [5] > 100 µM | [6] > 100 µM | [7] > 100 µM | [8] > 100 µM | [9] > 100 µM | [10] > 100 µM | [11] > 100 µM | [12] > 100 µM | [13] > 100 µM | [14] > 100 µM | [15] > 100 µM | [16] > 100 µM | [17] > 100 µM | [18] > 100 µM

Cc1cccc(/C=N/C23CC4CC(CC(C4)C2)C3)c1
inactive: [1] > 100 µM | [2] > 100 µM | [3] > 100 µM | [4] > 100 µM | [5] > 100 µM | [6] > 100 µM | [7] > 100 µM | [8] > 100 µM | [9] > 100 µM | [10] > 100 µM | [11] > 100 µM | [12] > 100 µM | [13] > 100 µM | [14] > 100 µM | [16] > 100 µM | [17] > 100 µM | [18] > 100 µM

COc1ccc(/C=C/c2cc(OC)c(O[Si](C)(C)C(C)(C)C)c(OC)c2)cc1
inactive: [1] > 100 µM | [2] > 100 µM | [3] > 100 µM | [4] > 100 µM | [5] > 100 µM | [6] > 100 µM | [7] 63.4 µM | [8] > 100 µM | [9] 64.9 µM | [10] > 100 µM | [12] > 100 µM | [13] 6.24 µM | [14] > 100 µM | [15] > 10 µM | [16] > 100 µM | [18] 98.6 µM

COc1cc(Br)c(CC2NCCc3cc(OC)c(OC)cc32)cc1OC (stereo unspecified)
inactive: [1] 93.5 µM | [2] 76 µM | [3] 81.1 µM | [4] 68.7 µM | [5] 34.9 µM | [6] 44.7 µM | [7] 46.6 µM | [8] 84.9 µM | [9] 40.9 µM | [10] 86.1 µM | [13] 70.5 µM | [14] 94.4 µM | [15] 50.9 µM | [16] > 100 µM | [17] 83.4 µM | [18] 84.3 µM
